Data as given in patent US4626525A, “Antibiotics, preparation and use of and intermediates therefor” (Bayer Aktiengesellschaft, priority 1983, dated 1986).
Starred links: 1 amine or outer side, 2 acyl side, 3 side chain; linkers in the order of their positions; H or OH if unused. Non-standard residues stand in square brackets, D forms with d. Residues, ends and D or L forms follow the SMILES beside them. ξ: configuration not given here. X1 = Cn1c(=NC(N)=O)ccn(C2SC(C(O)C(N[*:1])C(=O)[*:2])C(O)C2O)c1=O; Orn(N5-OH,N5-Ac) = CC(=O)N(O)CCC[C@H](N)C(=O)O; ξT = CC(O)C(N)C(=O)O; ξA = CC(N)C(=O)O

Tests used:
Experiment in all cases: Hole test, inhibiting areola diameter, DST agar
Format in all cases: cell-based
[1] = tested on: E. coli 14; parameters: unit not given here; conditions: medium DST agar
Description: (§1) Activity against the germs listed below is found in vitro, on the basis of the diameter of the inhibiting areola.

[2] = tested on: E. coli T 7; parameters: unit not given here; conditions: medium DST agar
Description: as §1

[3] = tested on: Prot. 1017; conditions: 1000 μg/ml, medium DST agar
Description: as §1

[4] = tested on: Staph. 133; conditions: 1000 μg/ml, medium DST agar
Description: as §1

CC(=O)N(O)CCC[C@H](NC(=O)[C@H](CCCN(O)C(C)=O)NC(=O)[C@@H](N)CCCN(O)C(C)=O)C(=O)NC(C(=O)O)C(O)C1SC(n2ccc(=O)n(C)c2=O)C(O)C1O (some centres unmarked) [Compound 24]
Inhibiting areola diameter E. coli 14 ([1]; 1000 μg/ml): 18
Inhibiting areola diameter E. coli T 7 ([2]; 100 μg/ml): 18
Inhibiting areola diameter Prot. 1017 [3]: 18

CC(=O)N(O)CCC[C@H](NC(=O)[C@H](CCCN(O)C(C)=O)NC(=O)[C@@H](N)CCCN(O)C(C)=O)C(=O)NC(C(=O)NC(C(=O)O)C(O)C1SC(n2ccc(=NC(N)=O)n(C)c2=O)C(O)C1O)C(C)O (some centres unmarked) [Compound 20] (H-[Orn(N5-OH,N5-Ac)][Orn(N5-OH,N5-Ac)][Orn(N5-OH,N5-Ac)][ξT][X1]-OH)
Inhibiting areola diameter E. coli 14 ([1]; 100 μg/ml): 13
Inhibiting areola diameter E. coli 14 ([1]; 1000 μg/ml): 14
Inhibiting areola diameter E. coli T 7 ([2]; 100 μg/ml): 14
Inhibiting areola diameter E. coli T 7 ([2]; 1000 μg/ml): 15
Inhibiting areola diameter Staph. 133 [4]: 25
Inhibiting areola diameter Prot. 1017 [3]: 17

CC(=O)N(O)CCC[C@H](NC(=O)[C@H](CCCN(O)C(C)=O)NC(=O)[C@@H](N)CCCN(O)C(C)=O)C(=O)NC(C)C(=O)NC(C(=O)O)C(O)C1SC(n2ccc(=NC(N)=O)n(C)c2=O)C(O)C1O (some centres unmarked) [Compound 9] (H-[Orn(N5-OH,N5-Ac)][Orn(N5-OH,N5-Ac)][Orn(N5-OH,N5-Ac)][ξA][X1]-OH)
Inhibiting areola diameter E. coli 14 ([1]; 10 μg/ml): 30
Inhibiting areola diameter E. coli 14 ([1]; 100 μg/ml): 34
Inhibiting areola diameter E. coli T 7 ([2]; 10 μg/ml): 28
Inhibiting areola diameter E. coli T 7 ([2]; 100 μg/ml): 34

CC(=O)N(O)CCC[C@H](NC(=O)[C@H](CCCN(O)C(C)=O)NC(=O)[C@@H](N)CCCN(O)C(C)=O)C(=O)NC(C(=O)O)C(O)C1SC(n2ccc(=NC(N)=O)n(C)c2=O)C(O)C1O (some centres unmarked) [Compound 13]
Inhibiting areola diameter E. coli 14 ([1]; 1000 μg/ml): 20
Inhibiting areola diameter E. coli T 7 ([2]; 1000 μg/ml): 19
Inhibiting areola diameter Prot. 1017 [3]: 20

CC(=O)N(O)CCC[C@H](N)C(=O)NC(C(=O)O)C(O)C1SC(n2ccc(=NC(N)=O)n(C)c2=O)C(O)C1O (some centres unmarked) [Compound 11]
Inhibiting areola diameter E. coli 14 ([1]; 10 μg/ml): 18
Inhibiting areola diameter E. coli 14 ([1]; 100 μg/ml): 13
Inhibiting areola diameter E. coli T 7 ([2]; 10 μg/ml): 13
Inhibiting areola diameter E. coli T 7 ([2]; 100 μg/ml): 18
